Results on three molecules are retold here after patent US8734777B2, “Heterocyclic antiviral compounds” (priority 2010, dated 2014).

Each structure is given as a SMILES string. pIC50: −log10 of the molar value.

Data set [1] addresses T1, HCV polymerase (NS5B570n-Con1) (Hepatitis C virus genotype 1b, UniProt Q9WMX2).
T1 construct: contains a 21 amino acid deletion at the C-terminus relative to the full-length HCV polymerase; 6-histidine (N); made in house; host or cells: E. coli strain BL21(DE) pLysS, plasmid pET17b
Put plainly: HCV NS5B RNA polymerase activity assay. Format: biochemical, HCV Con1 strain. The protocol:
The enzymatic activity of HCV polymerase (NS5B570n-Con1) was measured as the incorporation of radiolabeled nucleotide monophosphates into acid insoluble RNA products. Unincorporated radiolabeled substrate was removed by filtration and scintillant was added to the washed and dried filter plate containing radiolabeled RNA product. The amount of RNA product generated by NS5B570-Con1 at the end of the reaction was directly proportional to the amount of light emitted by the scintillant.
The N-terminal 6-histidine tagged HCV polymerase, derived from HCV Con1 strain, genotype 1b (NS5B570n-Con1) contains a 21 amino acid deletion at the C-terminus relative to the full-length HCV polymerase and was purified from E. coli strain BL21(DE) pLysS. The construct, containing the coding sequence of HCV NS5B Con1 (GenBank accession number AJ242654) was inserted into the plasmid construct pET17b, downstream of a T7 promoter expression cassette and transformed into E. coli. A single colony was grown overnight as a starter culture and later used inoculate 10 L of LB media supplemented with 100 μg/mL ampicillin at 37° C. Protein expression was induced by the addition of 0.25 mM isopropyl-β-D-thiogalactopyranoside (IPTG) when optical density at […] of the culture was between 0.6 and 0.8 and cells were harvested after 16 to 18 h at 30° C. NS5B570n-Con1 was purified to homogeneity using a three-step protocol including subsequent column chromatography on Ni-NTA, SP-Sepharose HP and Superdex 75 resins. […]
The amount of light emitted from the scintillant was converted to counts per minute (CPM) on a Topcount® plate reader (Perkin-Elmer, Energy Range: Low, Efficiency Mode: Normal, Count Time: 1 min, Background Subtract: none, Cross talk reduction: Off).
Data was analyzed in Excel® (Microsoft®) and ActivityBase® (Idbs®). […] All data was expressed as a percentage of the positive control. […]

The next data set can be described thus: in vitro. The conditions noted are these: human.
For data set [2], the system named is HCV replicon cells (2209-23), genotype 1b replicon. Put plainly: HCV replicon assay (Renilla luciferase reporter). As to conditions: Hepatitis C virus, 72 h; 2209-23 cells, three days incubation, luciferase activity. Format: cell-based, HCV genotype 1b.

`COc1c(C(C)(C)C)cc(-c2ccc[nH]c2=O)c2ccc(-c3ccc(NS(C)(=O)=O)cc3)nc12` [Compound I-1, N-{4-[7-tert-Butyl-8-methoxy-5-(2-oxo-1,2-dihydro-pyridin-3-yl)-quinolin-2-yl]-phenyl}-methanesulfonamide] gave a negative-log IC50 (pIC50) in data set [1] of 9.22.

Regarding `COc1c(C(C)(C)C)cc(-c2ccc(C)[nH]c2=O)c2ccc(-c3ccc(NS(C)(=O)=O)cc3)nc12` [Compound I-2, N-{4-[7-tert-Butyl-8-methoxy-5-(6-methyl-2-oxo-1,2-dihydro-pyridin-3-yl)-quinolin-2-yl]-phenyl}-methanesulfonamide], the pIC50 in data set [1] was 9.40. The pIC50 values of the last two molecules are within 0.2 log units of each other.

For `COc1c(C(C)(C)C)cc(-n2ccc(=O)[nH]c2=O)c2ccc(-c3ccc(NS(C)(=O)=O)cc3)nc12` [Compound I-3, N-{4-[7-tert-Butyl-5-(2,4-dioxo-3,4-dihydro-2H-pyrimidin-1-yl)-8-methoxy-quinolin-2-yl]-phenyl}-methanesulfonamide], the melting point lay in the range of 275 to 278 °C. Also, the CC50 at 3 days in “in vitro” was 44000 nM. Further, the pIC50 in data set [1] was 9.70. In data set [2], this molecule showed a pIC50 of 7.77.
